SMILES strings stand for the structures.

One data set deals with VCAM-1. As to the kind of experiment: Inhibition of VCAM-1 expression in proliferating human umbilical vein endothelial cells (cell ELISA). It counts as cell-based. The note with it: HUVEC, coincubated with tumor necrosis factor-alpha about 20 to 24 hr, average of three runs, numbers in parentheses represent negative values, read-out: VCAM-1 (% inh. 50 µM). The method, then:
Plate proliferating human umbilical vein endothelial cells (HUVEC) or human aortic smooth muscle cells (HASMC) from Clonetics (San Diego, CA) onto 96-well plates in 100 µL medium per well at 20,000 cells per cm^2. Maintain the cultures in growth medium (EGM or SMGM2, Clonetics, San Diego, CA) for two days prior to addition of cytokines or drugs. Add cytokines plus or minus compounds for 20 to 24 hours prior to analysis for adhesion molecule levels. Add tumor necrosis factor (Genzyme, Cambridge, MA) to cultures at 500-1000 units/mL to stimulate ICAM-1 expression. Add interleukin-4 (GIBCO-BRL, Gaithersburg, MD) to cultures at 100-200 pg/mL to stimulate VCAM-1 expression. […] Remove the culture medium, and wash the monolayers twice with Hanks buffered saline solution (HBSS) at room temperature. Add the primary antibody (anti-human VCAM-1 from Upstate Biotechnology, Inc., Lake Placid, NY or anti-human ICAM-1 from Immunotech, Inc., Westbrook, ME) to each well (1 µg/mL in HBSS plus 5% newborn calf serum, GIBCO-BRL, Gaithersburg, MD) and incubate at 37°C for 1 hr. Wash the wells twice with HBSS, then add 100 µL of a 1/1000 dilution of goat anti-mouse IgG conjugated to horse radish peroxidase (BioRad, Hercules, CA) in HBSS plus 5% newborn calf serum to each well and incubated for 1 hr at 37°C. […] Measure absorbance at 450 nm with a plate reader. […]
A general note: An ELISA detects its analyte on a solid surface through an enzyme-linked reagent.
`CC(C)=CCCC(C)CCSc1cc(C(C)(C)C)c(O)c(C(C)(C)C)c1` (centres unmarked) [MDL 103,960, Phenol, 2,6-bis(1,1-dimethylethyl)-4-[(3,7-dimethyl-6-octenyl)thio]-]: the inhibition at 50 µM is 25.7%.
On the same count and under the same terms, to `CC(C)CCCC(C)CCOc1ccc(O)c(C(C)(C)C)c1` (centres unmarked) [MDL 104,191, Phenol, 2-(1,1-dimethylethyl)-4-[(3,7-dimethyloctyl)oxy]-] belongs 34.3%.

Another data set deals with oxidation of serum lipids. As to the kind of experiment: TBARS assay on serum of treated rats (CuSO4-initiated oxidation). It counts as in vivo, Male Sprague-Dawley rats. The note with it: % of control; thiobarbituric acid reactive substances as nmoles MDA, rat serum; diet 0.3%, 4 days; N = 5. The text has this: (§1) A typical experiment consists of 4-6 groups of rats (N = 5 per group) with I group being a control which receives no MDL compound and the other groups being treated with 0.3% MDL compound. Some of the compounds are either repeated at 0.3% or evaluated again at the lower dose of 0.1%. House Male Sprague-Dawley rats, 50-100 g, (Harlan Laboratories, Indianapolis, IN) in groups of 5, feeding ad libitum water and Purina Rodent chow (#5002) with or without MDL compound as a dietary admixture for 4 days. Make dietary admixtures (0.3%) by mixing 1.2 grams of an MDL compound with 400 grams of Purina rodent chow (#5002). Mix the MDL compound with approximately 50 grams of food using a mortar and pestle. This is added to the remainder of the food and mixed for 3 hours on a rotary mixer. In the morning of day 5, anesthetize non-fasted rats with carbon dioxide, and collect blood by cardiac puncture. Sacrifice rats by cervical dislocation. Record body weights and liver weights in grams. Record food consumption as grams • day^-1 • rat^-1. Deaths are recorded as mortality. Use aliquots of fresh serum for clinical chemistries, thiobarbituric acid reactive substances (TBARS) and conjugated diene measurements. Freeze aliquots of serum (∼ 0.5mL) and whole livers at -20°C for compound and metabolite concentration determination at a later time.
In this assay the oxidation of serum lipids is initiated with CuSO4, resulting in the formation of aldehydes, such as malondialdehyde (MDA). Upon incubation with thiobarbituric acid, the absorbance of the aldehydes can be detected at 530-540 nm. As stated in the previous example, TBARS values which are lower than control serum values indicate the relative ability of a test compound to inhibit the oxidation of lipids in a sample. Measure TBARS as follows: mix 100µL of serum with 400µL of a 5mmol CuSO4 solution and incubate at 37°C for 3 hr. Stop the reactions by addition of 1.0mL of 20% trichloroacetic acid. Then add 1.0mL of 0.67% thiobarbituric acid in 0.05 N sodium hydroxide, mix, and incubate the samples for 30 min at 90°C. Centrifuge samples briefly to pellet undissolved material, and transfer the supernatants to a 96-well microtiter plate. Measure absorbances at 540 nm using a Biotek model EL311 microplate reader. The nmoles of MDA produced are calculated from a standard curve of 0 to 10 nmoles of MDA prepared from malonaldehyde bis(dimethylacetal). Serum samples from treated rats are compared to serum samples from control rats that received no MDL compound.
On to `CC(C)=CCC[C@H](C)CCOc1cc(C(C)(C)C)c(O)c(C(C)(C)C)c1` [MDL 103,294, Phenol, 2,6-bis(1,1-dimethylethyl)-4-[(3,7-dimethyl-6-octenyl)oxy]-, (S)-], for which the TBARS came out at 18%.
The same measure, in the same setting: to `CC(C)=CCCC(C)CCSc1cc(C(C)(C)C)c(O)c(C(C)(C)C)c1` (centres unmarked) [MDL 103,960, Phenol, 2,6-bis(1,1-dimethylethyl)-4-[(3,7-dimethyl-6-octenyl)thio]-] belongs 24%.
Same read-out and setting: to `CC(C)CCCC(C)CCOc1ccc(O)c(C(C)(C)C)c1` (centres unmarked) [MDL 104,191, Phenol, 2-(1,1-dimethylethyl)-4-[(3,7-dimethyloctyl)oxy]-] belongs 20%; to `CC(C)=CCC[C@@H](C)CCOc1cc(C(C)(C)C)c(O)c(C(C)(C)C)c1` [MDL 104,535, Phenol, 2,6-bis(1,1-dimethylethyl)-4-[(3,7-dimethyl-6-octenyl)oxy]-,(R)-], 11%.

Tested on in the next data set: not listed separately
As to the kind of experiment: HPLC quantitation of compound and metabolite concentration in rat serum and liver. The format is in vivo. The note with it: male, Sprague-Dawley, oral, 0.3 % in chow; parent compound concentration in rat liver; diet 0.3%, 4 days; mean N = 5; read-out: Liver Parent.
Source text: as §1
Determine serum and liver concentrations of parent compound and the metabolites, bisphenol and diphenoquinone, by reverse phase HPLC using a Waters 990 Powerline system. Homegenize livers (1 gram samples) with 5.0mL PBS, pH 7.4, using a Polytron tissue homogenizer at setting 5 for 20-30 seconds. Extract serum or liver homogenates as follows: add 100µL of either serum or homogenate to 2.0mL diethyl ether: ethanol (3:1) while vortexing the tube. Cap the sample tubes and centrifuge for 10 min at 5°C at 3500 rpm in a Beckman GPKR centrifuge with a GH 3.7 rotor. Transfer the supernatants to clean tubes and dry under N2. Reconstitute samples with 200µL of acetonitrile : hexane : 0.1 M ammonium acetate (90: 6.5 : 3.5, by vol.). Then, inject 100µL onto a Waters Deltapak C18-300 Å column, and elute with an 83% acetonitrile : 17% water mobile phase at a flow rate of 1.5mL/min. Record absorbances at the wavelengths of 240, 254, and 420nm. Calculate compound concentrations from known quantities of authentic parent compounds after correction for recovery. […]. Calculate concentrations as µg/mL of serum and µg/g of liver.
In the case of `CC(C)=CCC[C@H](C)CCOc1cc(C(C)(C)C)c(O)c(C(C)(C)C)c1` [MDL 103,294, Phenol, 2,6-bis(1,1-dimethylethyl)-4-[(3,7-dimethyl-6-octenyl)oxy]-, (S)-], the concentration at 5 day turned out to be 64600 ng/g.
Same read-out and setting: to `CC(C)=CCCC(C)CCSc1cc(C(C)(C)C)c(O)c(C(C)(C)C)c1` (centres unmarked) [MDL 103,960, Phenol, 2,6-bis(1,1-dimethylethyl)-4-[(3,7-dimethyl-6-octenyl)thio]-] belongs 47300 ng/g.
As to `CC(C)CCCC(C)CCOc1ccc(O)c(C(C)(C)C)c1` (centres unmarked) [MDL 104,191, Phenol, 2-(1,1-dimethylethyl)-4-[(3,7-dimethyloctyl)oxy]-], the concentration at 5 day was determined as 16100 ng/g.
Still for that read-out and setting: to `CC(C)=CCC[C@@H](C)CCOc1cc(C(C)(C)C)c(O)c(C(C)(C)C)c1` [MDL 104,535, Phenol, 2,6-bis(1,1-dimethylethyl)-4-[(3,7-dimethyl-6-octenyl)oxy]-,(R)-] belongs 60300 ng/g.

Still in this data set, the particulars now being: male, Sprague-Dawley, oral, 0.3 % in chow; parent compound concentration in rat serum; diet 0.3%, 4 days; mean N = 5; read-out: Serum Parent.
On to `CC(C)=CCC[C@H](C)CCOc1cc(C(C)(C)C)c(O)c(C(C)(C)C)c1` [MDL 103,294, Phenol, 2,6-bis(1,1-dimethylethyl)-4-[(3,7-dimethyl-6-octenyl)oxy]-, (S)-], for which the concentration at 5 day came out at 21700 ng/mL.
For `CC(C)=CCCC(C)CCSc1cc(C(C)(C)C)c(O)c(C(C)(C)C)c1` (centres unmarked) [MDL 103,960, Phenol, 2,6-bis(1,1-dimethylethyl)-4-[(3,7-dimethyl-6-octenyl)thio]-], the concentration at 5 day amounted to 8700 ng/mL.
On to `CC(C)CCCC(C)CCOc1ccc(O)c(C(C)(C)C)c1` (centres unmarked) [MDL 104,191, Phenol, 2-(1,1-dimethylethyl)-4-[(3,7-dimethyloctyl)oxy]-], for which the concentration at 5 day amounted to 6900 ng/mL.
Still for that read-out and setting: to `CC(C)=CCC[C@@H](C)CCOc1cc(C(C)(C)C)c(O)c(C(C)(C)C)c1` [MDL 104,535, Phenol, 2,6-bis(1,1-dimethylethyl)-4-[(3,7-dimethyl-6-octenyl)oxy]-,(R)-] belongs 16300 ng/mL.

Values taken from patent EP0942896B1, “SUBSTITUTED PHENOLS AND THIOPHENOLS USEFUL AS ANTIOXIDANT AGENTS” (Aventis Pharmaceuticals Inc., priority 1996, dated 1998).
